# Tests used:
# Format in all cases: in vivo
# Barnyard Grass [1] = assay: Postemergent activity
# How it was run: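 Potted plants about 10 cms tall were sprayed to run-off with conventional equipment using aqueous compositions. These were made by dissolving the active ingredient in acetone at twice the final concentration and diluting with an equal volume of water containing 0.1 percent TWEEN® 200 surfactant. Toxicant-free sprays served as controls. After two weeks of growth, injury was scored from 0 (no effect) to 100 (complete kill).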
# Crabgrass = assay: Postemergent activity
# How it was run: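 Potted crabgrass plants grown to roughly 10 cms tall were sprayed to run-off with aqueous compositions of the test compound, which was first dissolved in acetone at twice the final concentration and then diluted with an equal volume of water containing 0.1 percent by weight TWEEN® 200 surfactant. Pots sprayed without toxicant served as controls. After two weeks under growth-favorable conditions, plant control was scored from 0 (no effect) to 100 (complete kill).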
# Johnson Grass = assay: Postemergent activity
# Description: (§1) Representative compositions of the present invention were evaluated for the postemergence control of species of plants listed in Table A. In these evaluations, pots of the plant species listed in Table A, grown to a height of about 10 cms, were used. Aqueous spray compositions, containing various amounts of 2-[4-(2-fluoro-4-trifluoromethylphenoxy)-phenoxy]propionic acid methy ester, i.e., 125 ppm, 62.5 ppm, 31.25 ppm, 15.6 ppm, 7.8 ppm and 3.9 ppm, respectively, were applied to separate pots. The spray compositions were made by mixing the active ingredient in acetone to 1/2 the final volume, i.e., twice the final concentration. An equal amount of water was added to the active ingredient/acetone mixture wherein the water contained 0.1 percent by weight of TWEEN® 200 surfactant. The application to the plants was made to the point of run-off and was carried out with conventional spraying equipment. Other pots were sprayed with similar compositions containing no toxicant to serve as controls. Thereafter, the pots were maintained under conditions conducive for plant growth. Two weeks after treatment, the pots were examined for plant growth and evaluated on a scale of 0 to 100 where 0 represents no effect and 100 represents complete kill. The results of the examination of the treated pots are set forth below in Table A.
# cocklebur = assay: Postemergent activity; settings: 125 ppm
# Description: as §1
# cotton [2] = assay: Postemergent activity; settings: 125 ppm
# Description: as §1
# jimson weed [3] = assay: Postemergent activity; settings: 125 ppm
# Description: as §1
# morning glory = assay: Postemergent activity; settings: 125 ppm
# Description: as §1
# pigweed [4] = assay: Postemergent activity; settings: 125 ppm
# Description: as §1
# rape [5] = assay: Postemergent activity; settings: 125 ppm
# Description: as §1
# soybeans = assay: Postemergent activity; settings: 125 ppm
# Description: as §1
# sugar beets = assay: Postemergent activity; settings: 125 ppm
# Description: as §1
# velvet leaf [6] = assay: Postemergent activity; settings: 125 ppm
# Description: as §1
# Barnyard Grass [7] = assay: Preemergent activity; settings: Echinochloa crus-galli, pre-emergence, read-out: Preemergence Control; for pest or weed control at 70 g/ha: 0.07 kgs/hectare; for pest or weed control at 280 g/ha: 0.28 kgs/hectare
# How it was run: (§2)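 Test compound was applied in acetone mixed with an equal volume of water containing 0.1% Tween-20, sprayed preemergence onto seed beds of sandy loam soil sown with the test species. Beds were kept under identical temperature and light. A solvent-only spray served as control.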
# Yellow Foxtail = assay: Preemergent activity; settings: Setaria, pre-emergence, read-out: Preemergence Control; for pest or weed control at 70 g/ha: 0.07 kgs/hectare; for pest or weed control at 280 g/ha: 0.28 kgs/hectare
# How it was run: as §2
# cotton [8] = assay: Preemergent activity; settings: 0.28 kgs/hectare, seeds
# Description: (§3) In a representative operation, 2-[4-(2-fluoro-4-trifluoromethylphenoxy)phenoxy]propionic acid methyl ester, to be utilized in a series of tests, is dissolved in acetone to one half of the final volume (twice the final concentration) to be used and the acetone solution in each case is admixed with an equal volume of water containing 0.1 percent by weight of Tween-20 surface active material (Tween-20 is a trademark of Atlas Chemical Company). The composition, generally in the nature of an emulsion, was employed to treat separate respective seed beds of sandy loam soil of good nutrient content wherein each seed bed contained separate groups of good viable seeds, each group being of one of a known plant species. The various beds were positioned side by side and exposed to substantially identical conditions of temperature and light. Each bed was maintained so as to prevent any interaction with the test compound in different seed beds. Each seed bed was treated with the composition as a spray employing conventional spraying equipment to deposit a predetermined amount of the compound uniformly throughout the surface of the bed. Another seed bed was treated only with the acetone-Tween-20 water mixture with no chemical added to serve as a control. After treatment, the seed beds were maintained for two weeks under greenhouse conditions conducive for good plant growth and watered as necessary. Control refers to the reduction in growth of the test species in the presence of the test chemical relative to the observed growth of the same species in the absence of the test chemical.
# (§4) Substantially the same procedures described in Example C were repeated using as the active ingredients
# jimson weed [9] = assay: Preemergent activity; settings: 0.28 kgs/hectare, seeds
# Description: as §3, §4
# pigweed [10] = assay: Preemergent activity; settings: 0.28 kgs/hectare, seeds
# Description: as §3, §4
# rape [11] = assay: Preemergent activity; settings: 0.28 kgs/hectare, seeds
# Description: as §3, §4
# soybean = assay: Preemergent activity; settings: 0.28 kgs/hectare, seeds
# Description: as §3, §4
# sugarbeets = assay: Preemergent activity; settings: 0.28 kgs/hectare, seeds
# Description: as §3, §4
# velvet leaf [12] = assay: Preemergent activity; settings: 0.28 kgs/hectare, seeds
# Description: as §3, §4
structure (smiles),measurement,setting,value
COC(=O)C(C)Oc1ccc(Oc2ccc(C(F)(F)F)cc2F)cc1 (stereo not drawn) [2-[4-(2-fluoro-4-trifluoromethylphenoxy)phenoxy]propionic acid methyl ester],% Control,Barnyard Grass [1]; 3.9 ppm,50%
same,% Control,Barnyard Grass [1]; 7.8 ppm,100%
same,% Control,Barnyard Grass [1]; 15.6 ppm,100%
same,% Control,Barnyard Grass [1]; 31.25 ppm,100%
same,% Control,Barnyard Grass [1]; 62.5 ppm,100%
same,% Control,Barnyard Grass [1]; 125 ppm,100%
same,% Control,Crabgrass; 3.9 ppm,90%
same,% Control,Crabgrass; 7.8 ppm,100%
same,% Control,Crabgrass; 15.6 ppm,100%
same,% Control,Crabgrass; 31.25 ppm,100%
same,% Control,Crabgrass; 62.5 ppm,100%
same,% Control,Crabgrass; 125 ppm,100%
same,% Control,Johnson Grass; 3.9 ppm,60%
same,% Control,Johnson Grass; 7.8 ppm,100%
same,% Control,Johnson Grass; 15.6 ppm,100%
same,% Control,Johnson Grass; 31.25 ppm,100%
same,% Control,Johnson Grass; 62.5 ppm,100%
same,% Control,Johnson Grass; 125 ppm,100%
same,phytotoxic effect,cocklebur,inactive
same,phytotoxic effect,cotton [2],inactive
same,phytotoxic effect,jimson weed [3],inactive
same,phytotoxic effect,morning glory,inactive
same,phytotoxic effect,pigweed [4],inactive
same,phytotoxic effect,rape [5],inactive
same,phytotoxic effect,soybeans,inactive
same,phytotoxic effect,sugar beets,inactive
same,phytotoxic effect,velvet leaf [6],inactive
same,pest or weed control at 18 g/ha,Barnyard Grass [7]; 0.018 kgs/hectare,20%
same,pest or weed control at 35 g/ha,Barnyard Grass [7]; 0.035 kgs/hectare,70%
same,pest or weed control at 70 g/ha,Barnyard Grass [7],80%
same,pest or weed control at 114 g/ha,Barnyard Grass [7]; 0.114 kgs/hectare,100%
same,pest or weed control at 280 g/ha,Barnyard Grass [7],100%
same,pest or weed control at 18 g/ha,Yellow Foxtail; 0.018 kgs/hectare,20%
same,pest or weed control at 35 g/ha,Yellow Foxtail; 0.035 kgs/hectare,70%
same,pest or weed control at 70 g/ha,Yellow Foxtail,100%
same,pest or weed control at 114 g/ha,Yellow Foxtail; 0.114 kgs/hectare,100%
same,pest or weed control at 280 g/ha,Yellow Foxtail,100%
same,phytotoxic effect,cotton [8],inactive
same,phytotoxic effect,jimson weed [9],inactive
same,phytotoxic effect,pigweed [10],inactive
same,phytotoxic effect,rape [11],inactive
same,phytotoxic effect,soybean,inactive
same,phytotoxic effect,sugarbeets,inactive
same,phytotoxic effect,velvet leaf [12],inactive
"COC(=O)C(C)Oc1ccc(Oc2ccc(Cl)cc2F)cc1 (racemic) [Example 4-Chloro-, 2-[4-(4-chloro-2-fluorophenoxy)phenoxy]propionic acid methyl ester]",pest or weed control at 70 g/ha,Barnyard Grass [7],40%
same,pest or weed control at 140 g/ha,Barnyard Grass [7]; 0.14 kgs/hectare,98%
same,pest or weed control at 280 g/ha,Barnyard Grass [7],98%
same,pest or weed control at 560 g/ha,Barnyard Grass [7]; 0.56 kgs/hectare,100%
same,pest or weed control at 1120 g/ha,Barnyard Grass [7]; 1.12 kgs/hectare,100%
same,pest or weed control at 70 g/ha,Yellow Foxtail,0%
same,pest or weed control at 140 g/ha,Yellow Foxtail; 0.14 kgs/hectare,10%
same,pest or weed control at 280 g/ha,Yellow Foxtail,90%
same,pest or weed control at 560 g/ha,Yellow Foxtail; 0.56 kgs/hectare,95%
same,pest or weed control at 1120 g/ha,Yellow Foxtail; 1.12 kgs/hectare,95%
